Toxic doses and inconclusive results are not listed. Rule for the calls: active = survival T/C of 150% or more; inactive = T/C below 125% in these data.
Tested on: CD2F1 mice, L1210 leukemia ip, survival T/C
Assay: NCI In Vivo Anticancer Drug Screen. Data for tumor model L1210 Leukemia (intraperitoneal) in CD2F1 (CDF1) mice
Conditions: higher = longer survival
In short: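 Vehicle-treated tumor-bearing mice served as controls (C) for compound-treated mice (T). Reported figure is T divided by C.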

[1] = endpoint: mean survival time, dose: 50.0 mg/kg/injection, schedule: Q01DX009 (ip), vehicle: saline with Tween-80
[2] = endpoint: mean survival time, dose: 100.0 mg/kg/injection, schedule: Q01DX009 (ip), vehicle: saline with Tween-80
[3] = endpoint: mean survival time, dose: 100.0 mg/kg/injection, schedule: Q04DX003 (ip), vehicle: saline with Tween-80
[4] = endpoint: mean survival time, dose: 200.0 mg/kg/injection, schedule: Q01DX009 (ip), vehicle: saline with Tween-80
[5] = endpoint: mean survival time, dose: 200.0 mg/kg/injection, schedule: Q04DX003 (ip), vehicle: saline with Tween-80

Measured: T/C

[O-][n+]1cccc2ccc3ccccc3c21
inactive: endpoint: mean survival time, dose: 50.0 mg/kg/injection, schedule: Q01DX009 (ip), vehicle: other 101 % of control | endpoint: mean survival time, dose: 100.0 mg/kg/injection, schedule: Q01DX009 (ip), vehicle: other 101 % of control

O=P1(N(CCCl)CCCl)NCCCO1.[Cl][Sb]([Cl])[Cl] (configuration not stated)
inactive: endpoint: mean survival time, dose: 31.25 mg/kg/injection, schedule: Q01DX001 (ip), vehicle: olive oil, sesame oil, peanut oil 109 % of control | endpoint: mean survival time, dose: 62.5 mg/kg/injection, schedule: Q01DX001 (ip), vehicle: olive oil, sesame oil, peanut oil 113 % of control | endpoint: mean survival time, dose: 125.0 mg/kg/injection, schedule: Q01DX001 (ip), vehicle: olive oil, sesame oil, peanut oil 109 % of control

CNC1CC2CCC1(C)C2(C)C (configuration not stated)
inactive: endpoint: mean survival time, dose: 25.0 mg/kg/injection, schedule: Q04DX002 (ip), vehicle: saline 101 % of control | endpoint: mean survival time, dose: 50.0 mg/kg/injection, schedule: Q04DX002 (ip), vehicle: saline 112 % of control | endpoint: mean survival time, dose: 100.0 mg/kg/injection, schedule: Q04DX002 (ip), vehicle: saline 96 % of control

NCCCCCCN=C(N)C(N)=NCCCCCCN
inactive: endpoint: mean survival time, dose: 3.13 mg/kg/injection, schedule: Q04DX002 (ip), vehicle: saline 116 % of control | endpoint: mean survival time, dose: 6.25 mg/kg/injection, schedule: Q04DX002 (ip), vehicle: saline 90 % of control | endpoint: mean survival time, dose: 12.5 mg/kg/injection, schedule: Q04DX002 (ip), vehicle: saline 101 % of control

O=[N+]([O-])c1ccc(N/N=C2\C(c3ccccc3)=C(c3ccccc3)CC2Cl)c([N+](=O)[O-])c1 (configuration not stated)
inactive: endpoint: mean survival time, dose: 100.0 mg/kg/injection, schedule: Q01DX001 (ip), vehicle: saline with Tween-80 90 % of control | endpoint: mean survival time, dose: 200.0 mg/kg/injection, schedule: Q01DX001 (ip), vehicle: saline with Tween-80 101 % of control | endpoint: mean survival time, dose: 400.0 mg/kg/injection, schedule: Q01DX001 (ip), vehicle: saline with Tween-80 96 % of control

O=P1(O)c2ccccc2Nc2ccccc21
inactive: endpoint: mean survival time, dose: 50.0 mg/kg/injection, schedule: Q01DX009 (ip), vehicle: Klucel (hydroxypropylcellulose) (HPC) 104 % of control | endpoint: mean survival time, dose: 100.0 mg/kg/injection, schedule: Q01DX009 (ip), vehicle: Klucel (hydroxypropylcellulose) (HPC) 93 % of control | endpoint: mean survival time, dose: 200.0 mg/kg/injection, schedule: Q01DX009 (ip), vehicle: Klucel (hydroxypropylcellulose) (HPC) 108 % of control

O=C(O)c1ccccc1SSc1ccccc1C(=O)O
inactive: [1] 89 % of control | [2] 101 % of control | [3] 102 % of control | [4] 95 % of control | [5] 104 % of control

CCCCNC(C)(C)C(SS)c1ccc(C(F)(F)F)cc1 (configuration not stated)
inactive: endpoint: mean survival time, dose: 100.0 mg/kg/injection, schedule: Q04DX003 (ip), vehicle: other 94 % of control | endpoint: mean survival time, dose: 400.0 mg/kg/injection, schedule: Q04DX003 (ip), vehicle: other 86 % of control

O=C(O)/C=C\c1cccc([N+](=O)[O-])c1
inactive: [2] 94 % of control | [4] 103 % of control | endpoint: mean survival time, dose: 400.0 mg/kg/injection, schedule: Q01DX009 (ip), vehicle: saline with Tween-80 88 % of control

C=C1C(C)C2C(Cc3ccccc3)NC(=O)C23C(OC(C)=O)/C=C/C(C)(O)CC(C)C/C=C/C3C1O (configuration not stated)
inactive: endpoint: mean survival time, dose: 0.37 mg/kg/injection, schedule: Q01DX009 (ip), vehicle: Klucel (hydroxypropylcellulose) (HPC) 95 % of control | endpoint: mean survival time, dose: 0.75 mg/kg/injection, schedule: Q01DX009 (ip), vehicle: Klucel (hydroxypropylcellulose) (HPC) 100 % of control | endpoint: mean survival time, dose: 1.5 mg/kg/injection, schedule: Q01DX009 (ip), vehicle: Klucel (hydroxypropylcellulose) (HPC) 96 % of control | endpoint: mean survival time, dose: 3.0 mg/kg/injection, schedule: Q01DX009 (ip), vehicle: Klucel (hydroxypropylcellulose) (HPC) 96 % of control | endpoint: mean survival time, dose: 6.0 mg/kg/injection, schedule: Q01DX009 (ip), vehicle: Klucel (hydroxypropylcellulose) (HPC) 105 % of control | endpoint: mean survival time, dose: 12.0 mg/kg/injection, schedule: Q01DX009 (ip), vehicle: Klucel (hydroxypropylcellulose) (HPC) 105 % of control | endpoint: mean survival time, dose: 375.0 micrograms/kg/injection, schedule: Q01DX009 (ip), vehicle: Klucel (hydroxypropylcellulose) (HPC) 106 % of control | endpoint: mean survival time, dose: 750.0 micrograms/kg/injection, schedule: Q01DX009 (ip), vehicle: Klucel (hydroxypropylcellulose) (HPC) 96 % of control | endpoint: mean survival time, dose: 1500.0 micrograms/kg/injection, schedule: Q01DX009 (ip), vehicle: Klucel (hydroxypropylcellulose) (HPC) 104 % of control | endpoint: mean survival time, dose: 3000.0 micrograms/kg/injection, schedule: Q01DX009 (ip), vehicle: Klucel (hydroxypropylcellulose) (HPC) 101 % of control | endpoint: mean survival time, dose: 6000.0 micrograms/kg/injection, schedule: Q01DX009 (ip), vehicle: Klucel (hydroxypropylcellulose) (HPC) 96 % of control

CC(=O)NC(CCc1ccc(Cl)c(Cl)c1)c1cccc(O)c(=O)c1 (configuration not stated)
inactive: endpoint: median survival time, dose: 3.12 mg/kg/injection, schedule: Q01DX009 (ip), vehicle: Klucel (hydroxypropylcellulose) (HPC) 94 % of control | endpoint: median survival time, dose: 6.25 mg/kg/injection, schedule: Q01DX009 (ip), vehicle: Klucel (hydroxypropylcellulose) (HPC) 100 % of control | endpoint: median survival time, dose: 12.5 mg/kg/injection, schedule: Q01DX009 (ip), vehicle: Klucel (hydroxypropylcellulose) (HPC) 106 % of control | endpoint: median survival time, dose: 25.0 mg/kg/injection, schedule: Q01DX009 (ip), vehicle: Klucel (hydroxypropylcellulose) (HPC) 102 % of control | endpoint: median survival time, dose: 50.0 mg/kg/injection, schedule: Q01DX009 (ip), vehicle: Klucel (hydroxypropylcellulose) (HPC) 103 % of control | endpoint: median survival time, dose: 100.0 mg/kg/injection, schedule: Q01DX009 (ip), vehicle: Klucel (hydroxypropylcellulose) (HPC) 116 % of control

C=C1C(=O)O[C@@H]2C[C@@H](C)[C@@H]3C=CC(=O)[C@@]3(C)[C@@H](O)[C@H]12
inactive: endpoint: mean survival time, dose: 8.0 mg/kg/injection, schedule: Q04DX003 (ip), vehicle: saline with Tween-80 117 % of control

O=C(NCCNC(=O)c1ccccc1)c1ccccc1
inactive: endpoint: mean survival time, dose: 6.25 mg/kg/injection, schedule: Q04DX002 (ip), vehicle: saline with Tween-80 97 % of control | endpoint: mean survival time, dose: 12.5 mg/kg/injection, schedule: Q04DX002 (ip), vehicle: saline with Tween-80 93 % of control | endpoint: mean survival time, dose: 25.0 mg/kg/injection, schedule: Q04DX002 (ip), vehicle: saline with Tween-80 93 % of control | endpoint: mean survival time, dose: 50.0 mg/kg/injection, schedule: Q04DX002 (ip), vehicle: saline with Tween-80 89 % of control | endpoint: median survival time, dose: 50.0 mg/kg/injection, schedule: Q04DX002 (ip), vehicle: saline with Tween-80 94 % of control

CC1CCC2N(C1)CC1C(C(O)C(O)C3(O)C1CC14OC5(O)C(O)CCC1(C)C5CC(O)C34)C2(C)O (configuration not stated)
inactive: [1] 105 % of control | [2] 116 % of control | [4] 105 % of control

Cc1ccc(S(=O)(=O)CN2CCC(=O)c3ccccc32)cc1
inactive: endpoint: mean survival time, dose: 75.0 mg/kg/injection, schedule: Q04DX003 (ip), vehicle: saline 95 % of control | endpoint: mean survival time, dose: 150.0 mg/kg/injection, schedule: Q04DX003 (ip), vehicle: saline 91 % of control | endpoint: mean survival time, dose: 300.0 mg/kg/injection, schedule: Q04DX003 (ip), vehicle: saline 97 % of control

CC(=O)O.[Ni]
inactive: endpoint: mean survival time, dose: 40.0 mg/kg/injection, schedule: Q01DX001 (ip), vehicle: saline 118 % of control

C(=N/N=C(\C(=N\N=C\c1ccc2c(c1)CCC2)c1ccccc1)c1ccccc1)\c1ccc2c(c1)CCC2
inactive: [3] 96 % of control | [5] 89 % of control | endpoint: mean survival time, dose: 400.0 mg/kg/injection, schedule: Q04DX003 (ip), vehicle: saline with Tween-80 87 % of control

c1ccc(N=C2CCCCC2)cc1
inactive: endpoint: mean survival time, dose: 100.0 mg/kg/injection, schedule: Q01DX001 (ip), vehicle: other 115 % of control | endpoint: mean survival time, dose: 100.0 mg/kg/injection, schedule: Q01DX001 (ip), vehicle: saline + Tween-80 + alcohol 98 % of control | endpoint: mean survival time, dose: 200.0 mg/kg/injection, schedule: Q01DX001 (ip), vehicle: other 93 % of control | endpoint: mean survival time, dose: 200.0 mg/kg/injection, schedule: Q01DX001 (ip), vehicle: saline + Tween-80 + alcohol 102 % of control | endpoint: mean survival time, dose: 400.0 mg/kg/injection, schedule: Q01DX001 (ip), vehicle: other 120 % of control | endpoint: mean survival time, dose: 400.0 mg/kg/injection, schedule: Q01DX001 (ip), vehicle: saline + Tween-80 + alcohol 103 % of control | endpoint: mean survival time, dose: 600.0 mg/kg/injection, schedule: Q01DX001 (ip), vehicle: saline + Tween-80 + alcohol 105 % of control

Reference: PubChem BioAssay AID256 (DTP/NCI, 2004)
